Experimental data as given in US7875595B2, “2-polycyclic propynyl adenosine analogs having A2A agonist activity” (University of Virginia Patent Foundation, priority 2004, dated 2011).
Where two headings read alike, the source gives them in different places.

Assays:
human A1 AR = biological target: T1, human A1 AR (Homo sapiens, UniProt P30542); experiment: Radioligand competition binding to human A1 adenosine receptor (125I-ABA); conditions: membranes of CHO K1 cells expressing human A1 AR, read-out: A1 (nM) binding affinity
T1 construct: expressed in transfected cells
T1 sequence (P30542 1-326): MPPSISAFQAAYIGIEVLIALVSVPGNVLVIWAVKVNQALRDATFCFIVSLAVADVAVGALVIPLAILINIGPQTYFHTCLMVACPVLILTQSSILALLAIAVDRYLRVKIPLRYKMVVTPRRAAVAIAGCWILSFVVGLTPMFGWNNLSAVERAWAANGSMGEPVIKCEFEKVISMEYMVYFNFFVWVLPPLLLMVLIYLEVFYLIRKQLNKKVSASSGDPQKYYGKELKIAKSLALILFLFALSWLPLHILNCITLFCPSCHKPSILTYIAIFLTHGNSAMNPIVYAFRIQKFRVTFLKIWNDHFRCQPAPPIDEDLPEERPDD
Procedure: (§1) Sf9 cells were cultured in Grace's medium supplemented with 10% fetal bovine serum, 2.5 μg/ml amphotericin B and 50 μg/ml gentamycin in an atmosphere of 50% N2/50% O2. Viral infection was performed at a density of 2.5×10^6 cells/mL with a multiplicity of infection of two for each virus used. Infected cells were harvested 3 days post-infection and washed twice in insect PBS (PBS pH 6.3). Cells were then resuspended in lysis buffer (20 mM HEPES pH 7.5, 150 mM NaCl, 3 mM MgCl2, 1 mM β-mercaptoethanol (BME), 5 μg/mL leupeptin, 5 μg/mL pepstatin A, 1 μg/mL aprotinin, and 0.1 mM PMSF) and snap frozen for storage at −80° C. Cells were thawed on ice, brought to 30 mL total volume in lysis buffer, and burst by N2 cavitation (600 psi for 20 minutes). A low-speed centrifugation was performed to remove any unlysed cells (1000×g for 10 minutes), followed by a high-speed centrifugation (17,000×g for 30 minutes). The pellet from the final centrifugation was homogenized in buffer containing 20 mM HEPES pH 8, 100 mM NaCl, 1% glycerol, 2 μg/mL leupeptin, 2 μg/mL pepstatin A, 2 μg/mL Aprotinin, 0.1 mM PMSF, and 10 μM GDP using a small glass homogenizer followed by passage through a 26 gauge needle. Membranes were aliquoted, snap frozen in liquid N2, and stored at −80° C. Membranes from cells stably expressing the human A1 AR(CHO K1 cells) or A3 AR (HEK 293 cells) were prepared as described (Robeva et al., 1996).
(§2) Radioligand binding to recombinant human A2A receptors in Sf9 cell membranes was performed using either the radio labeled agonist, ^125I-APE (Luthin et al., 1995) or the radio labeled antagonist, ^125I-ZM241385 (^125I-ZM). To detect the high affinity, GTPγS-sensitive state of A1 and A3AR, we used the agonist, ^125I-ABA (Linden et al., 1985; Linden et al., 1993). Binding experiments were performed in triplicate with 5 μg (A2A) or 25 μg (A1 and A3) membrane protein in a total volume of 0.1 mL HE buffer (20 mM HEPES and 1 mM EDTA) with 1 U/mL adenosine deaminase and 5 mM MgCl2 with or without 50 μM GTPγS. […] Nonspecific binding was measured in the presence of 50 μM NECA. […]

[1] = biological target: T2, recombinant human A2A receptors (Homo sapiens, UniProt P29274); experiment: Radioligand competition binding to recombinant human A2A receptors in Sf9 cell membranes (125I-APE or 125I-ZM241385); conditions: read-out: A2A (nM) binding affinity
T2 construct: expressed in transfected cells; host or cells: Sf9 insect cells, viral infection, membranes
Procedure: as §1, §2

A3 AR = biological target: T3, A3 AR (Homo sapiens, UniProt P0DMS8); experiment: Radioligand competition binding to human A3 adenosine receptor (125I-ABA); conditions: membranes of HEK 293 cells expressing A3 AR, read-out: A3 (nM) binding affinity
T3 construct: expressed in transfected cells
T3 sequence (P0DMS8 1-318): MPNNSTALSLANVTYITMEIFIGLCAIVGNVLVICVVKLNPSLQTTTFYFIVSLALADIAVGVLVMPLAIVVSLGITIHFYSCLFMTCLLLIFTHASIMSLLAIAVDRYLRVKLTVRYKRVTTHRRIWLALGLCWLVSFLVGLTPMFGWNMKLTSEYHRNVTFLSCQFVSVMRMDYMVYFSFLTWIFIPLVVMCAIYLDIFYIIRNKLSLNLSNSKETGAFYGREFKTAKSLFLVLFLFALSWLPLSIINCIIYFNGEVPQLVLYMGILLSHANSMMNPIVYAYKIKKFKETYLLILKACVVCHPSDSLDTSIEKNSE
Procedure: as §1, §2

human neutrophils = experiment: Human neutrophil oxidative activity, luminol-enhanced chemiluminescence (fMLP stimulated); assay type: cell-based; conditions: human neutrophil experiment as described in Example 6 without Rolipram, peak chemiluminescence, read-out: Functional
Procedure: Chemiluminescence Methods: Luminol enhanced chemiluminescence, a measure of neutrophil oxidative activity, is dependent upon both superoxide production and mobilization of the granule enzyme myeloperoxidase. The light is emitted from unstable high-energy oxygen species such as hypochlorous acid and singlet oxygen generated by activated neutrophils.
Following incubation 100 µL aliquots of the PMN were transferred to wells (White walled clear bottom 96 well tissue culture plates Costar #3670; 2 wells/condition) containing […] and luminol (final concentration 100 µM) with or without adenosine agonist (final agonist concentrations 0.01-1000 nM). The plate was incubated 5 min (37° C.) and then fMLP ([…] in HA; final concentration […]) was added to all wells.
Peak chemiluminescence was determined with a Victor 1420 Multilabel Counter in the chemiluminescence mode using the Wallace Workstation software. Data are presented as peak chemiluminescence as percent of activity in the absence of an adenosine agonist. The EC50 was determined using PRISM software. All compounds were tested with PMNs from three separate donors.
Purified neutrophils (−98% neutrophils and >95% viable by trypan blue exclusion) containing <1 platelet per 5 neutrophils and <50 pg/ml endotoxin (limulus amebocyte lysate assay) were obtained from normal heparinized (10 U/ml) venous blood by a one step Ficoll-hypaque separation procedure (A. Ferrante et al., J. Immunol. Meth., 36, 109 (1980)).
Luminol-enhanced chemiluminescence, a measure of neutrophil oxidative activity, is dependent upon both superoxide production and mobilization of the lysosomal granule enzyme myeloperoxidase. The light is emitted from unstable high-energy oxygen species generated by activated neutrophils. […] Then luminol (1×10^−4 M) enhanced f-met-leu-phe (1 mcM) stimulated chemiluminescence was read with a Chronolog® Photometer (Crono-log Corp., Havertown, Pa.) at 37° C. for 2-4 minutes. […]

T2 sequence (P29274 whole entry): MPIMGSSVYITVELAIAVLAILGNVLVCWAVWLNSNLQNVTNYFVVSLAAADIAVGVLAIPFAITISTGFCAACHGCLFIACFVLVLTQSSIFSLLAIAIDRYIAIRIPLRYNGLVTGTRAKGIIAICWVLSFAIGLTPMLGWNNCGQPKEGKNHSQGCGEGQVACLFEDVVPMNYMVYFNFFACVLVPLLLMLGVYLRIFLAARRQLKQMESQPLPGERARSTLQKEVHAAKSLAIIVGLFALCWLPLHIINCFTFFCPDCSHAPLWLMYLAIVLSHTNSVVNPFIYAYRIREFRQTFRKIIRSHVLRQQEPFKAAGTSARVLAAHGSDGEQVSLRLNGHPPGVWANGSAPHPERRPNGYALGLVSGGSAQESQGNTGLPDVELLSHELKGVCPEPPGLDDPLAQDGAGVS

SMILES: Nc1nc(C#CC2(O)CC3CCC2C3)nc2c1ncn2[C@@H]1O[C@H](C(=O)NC2CC2)C(O)C1O (stereo in doubt) [Example 1, 5-[6-Amino-2-(2-hydroxy-bicyclo[2.2.1]hept-2-ylethynyl)-purin-9-yl]-3,4-dihydroxy-tetrahydro-furan-2-carboxylic acid cyclopropylamide]
- Ki (human A1 AR): 10 nM
- Ki [1]: 0.6 nM
- Ki (A3 AR): 7 nM
- EC50 (human neutrophils; Homo sapiens, Neutrophil): 0.9 nM

SMILES: Nc1nc(C#CC2(O)CC3CCC2C3)nc2c1ncn2[C@@H]1O[C@H](C(=O)NC2CC2)C(O)C1O (stereo in doubt) [Example 2, 5-[6-Amino-2-(2-hydroxy-bicyclo[2.2.1]hept-2-ylethynyl)-purin-9-yl]-3,4-dihydroxy-tetrahydro-furan-2-carboxylic acid cyclopropylamide]
- Ki (human A1 AR): 18 nM
- Ki [1]: 2 nM
- Ki (A3 AR): 12 nM
- EC50 (human neutrophils): 1.5 nM

SMILES: Nc1nc(C#CC2(O)C3CC4CC(C3)CC2C4)nc2c1ncn2[C@@H]1O[C@H](C(=O)NC2CC2)C(O)C1O (stereo in doubt) [Example 3, 5-[6-Amino-2-(2-hydroxy-adamantan-2-ylethynyl)-purin-9-yl]-3,4-dihydroxy-tetrahydro-furan-2-carboxylic acid cyclopropylamide]
- Ki (human A1 AR): 67.2 nM
- Ki [1]: 1 nM
- Ki (A3 AR): 45.4 nM
- EC50 (human neutrophils; Homo sapiens, Neutrophil): 2.4 nM
